pIC50: −log10 of the molar value.
System: HSSY-II tumor spheroid viability
Assay: Anticancer human tumor HSSY-II cell line growth inhibition;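 further: spheroids exposed to compounds for seven days before reading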;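 on viability, T/C: percent of DMSO vehicle control viability so 100% = untreated level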
Details: spheroids with HUVEC and MSC; for pIC50: curve of first compound; for viability, T/C: stronger effect = lower value
From the text: Multicellular complex tumor spheroid response to DNA repair inhibitors in combination with DNA-damaging drugs
This study explores the anticancer activities of DNA-damaging drugs and inhibitors of DNA damage repair, both as single agents and in combinations. Complex tumor spheroids comprised of malignant cells, endothelial cells and mesenchymal stem cells served as an in vitro model for human solid tumors. This model system incorporates physiologically relevant features and patient-derived or established malignant cell lines with clinically relevant genetic alterations from many tumor types. Twenty-six patient-derived or established malignant cell lines were evaluated representing sarcoma, melanoma, small cell lung cancer (SCLC), non-small cell lung cancer (NSCLC), as well as bladder, ovarian and pancreatic cancers. The concentration ranges selected for each drug and investigational agent were based upon clinically achievable concentrations if the clinical Cmax of the agent was known.
Compounds. The drugs and compounds olaparib (NSC753686), talazoparib (NSC767125), berzosertib (NSC777718), elimusertib (NSC800525), nedisertib (NSC802822), VX-984 (NSC792969), AZD-1390 (NSC803789), temozolomide (NSC362856), topotecan (NSC609699), trabectedin (NSC813783), staurosporine (NSC755774), and gemcitabine (NSC613327) were obtained from the National Cancer Institute (NCI) Developmental Therapeutics Program Chemical Repository. The FDA-approved anticancer drug set is available from the Developmental Therapeutics Program at https://dtp.cancer.gov/organization/dscb/obtaining/available_plates.htm. […] The stock solutions were prepared in dimethyl sulfoxide (DMSO, Sigma-Aldrich, St. Louis, MO, cat. D2650) at 400-fold the tested concentration and stored at -70 degrees C. Prior to their use, the stock solutions were diluted in fresh medium and the final DMSO concentration in the assay was 0.25% (v/v). All drugs and investigational agents were tested over a range starting from a high concentration at or near the clinical Cmax and decreasing in half-log increments. If the clinical Cmax for an agent had not been determined, the highest concentration tested was 10 microM.
Cell Lines. The patient-derived cancer cell (PDC) lines: 156681-154-R-J1-PDC, 283228-195-R-J1-PDC, 287954-098-R-J1-PDC, 292921-168-R-J2-PDC, 349418-098-R-PDC, 425362-245-T-J1-PDC, 556581-035-R-J1-PDC, and BL0293-F563-PDC were received from the NCI Patient-Derived Models Repository (PDMR, https://pdmr.cancer.gov). The established cell lines HS-SY-2 (RRID:CVCL_8719), MPNST, and SYO-1 (RRID:CVCL_7146) were obtained from the Sloan Kettering Institute. The alveolar soft parts sarcoma cell line ASPS-1 (RRID:CVCL_S738) was established at the NCI and grown from internal seed stocks. The following established cell lines were purchased from the American Type Culture Collection (ATCC, Manassas, VA): G-401 (ATCC, cat. CRL-1441, RRID:CVCL_0270), SW982 (ATCC, cat. HTB-93, RRID:CVCL_1734), VA-ES-BJ (ATCC, cat. CRL-2138, RRID:CVCL_1785), NCI-H719 (ATCC, cat. CRL-5837, RRID:CVCL_1582), NCI-H196 (ATCC, cat. CRL-5823, RRID:CVCL_1509), NCI-H841 (ATCC, cat. CRL-5845, RRID:CVCL_1595), NCI-H1618 (ATCC, cat. CRL-5879, RRID:CVCL_1480), NCI-H1876 (ATCC, cat. CRL-5902, RRID:CVCL_1503), DMS 114 (ATCC, cat. CRL-2066; RRID:CVCL_1174), NCI-H211 (ATCC, cat. CRL-5824; RRID:CVCL_1529), and SW 1271 (ATCC, cat. CRL-2177, RRID:CVCL_1716). The small cell lung cancer cell line COR-L88 was purchased from Sigma-Aldrich (cat. 92031917-1VL, RRID:CVCL_1141). The non-small cell lung cancer cell lines NCI-H226 (RRID:CVCL_1544) and NCI-H322M (RRID:CVCL_1557) were established at the NCI and grown from internal seed stocks. Pooled donor human umbilical vein endothelial cells (HUVEC, Lonza, cat. CC-2519) and human mesenchymal stem cells (hMSC, Lonza, cat. PT-2501) were purchased from Lonza (Walkersville, MD).
Cell Culture. All cells were maintained in an incubator at 37 degrees C and 5% CO2 with 95% humidity. […]

[1] = second compound 0.003 µM, first compound 0.00949 µM
[2] = second compound 0.003 µM, first compound 0.03 µM
[3] = second compound 0.003 µM, first compound 0.0949 µM
[4] = second compound 0.003 µM, first compound 0.3 µM
[5] = second compound 0.003 µM, first compound 0.949 µM
[6] = second compound 0.003 µM, first compound 3 µM
[7] = second compound 0.00949 µM, first compound 0.00949 µM
[8] = second compound 0.00949 µM, first compound 0.03 µM
[9] = second compound 0.00949 µM, first compound 0.0949 µM
[10] = second compound 0.00949 µM, first compound 0.3 µM
[11] = second compound 0.00949 µM, first compound 0.949 µM
[12] = second compound 0.00949 µM, first compound 3 µM
[13] = second compound 0.03 µM, first compound 0.00949 µM
[14] = second compound 0.03 µM, first compound 0.03 µM
[15] = second compound 0.03 µM, first compound 0.0949 µM
[16] = second compound 0.03 µM, first compound 0.3 µM
[17] = second compound 0.03 µM, first compound 0.949 µM
[18] = second compound 0.03 µM, first compound 3 µM
[19] = second compound 0.0949 µM, first compound 0.00949 µM
[20] = second compound 0.0949 µM, first compound 0.03 µM
[21] = second compound 0.0949 µM, first compound 0.0949 µM
[22] = second compound 0.0949 µM, first compound 0.3 µM
[23] = second compound 0.0949 µM, first compound 0.949 µM
[24] = second compound 0.0949 µM, first compound 3 µM
[25] = second compound 0.3 µM, first compound 0.00949 µM
[26] = second compound 0.3 µM, first compound 0.03 µM
[27] = second compound 0.3 µM, first compound 0.0949 µM
[28] = second compound 0.3 µM, first compound 0.3 µM
[29] = second compound 0.3 µM, first compound 0.949 µM
[30] = second compound 0.3 µM, first compound 3 µM

| SMILES | pIC50 (second compound 0.003 µM) | pIC50 (second compound 0.00949 µM) | pIC50 (second compound 0.03 µM) | pIC50 (second compound 0.0949 µM) | pIC50 (second compound 0.3 µM) | viability, T/C [3] [%] | viability, T/C [4] [%] | viability, T/C [5] [%] | viability, T/C [6] [%] | viability, T/C [9] [%] | viability, T/C [10] [%] | viability, T/C [11] [%] | viability, T/C [12] [%] | viability, T/C [15] [%] | viability, T/C [16] [%] | viability, T/C [17] [%] | viability, T/C [18] [%] | viability, T/C [21] [%] | viability, T/C [22] [%] | viability, T/C [23] [%] | also measured |
| --- | --- | --- | --- | --- | --- | --- | --- | --- | --- | --- | --- | --- | --- | --- | --- | --- | --- | --- | --- | --- | --- |
| CNCc1ccc(-c2cc(-c3nc(-c4ccc(S(=O)(=O)C(C)C)cc4)cnc3N)on2)cc1 + CC[C@@]1(O)C(=O)OCc2c1cc1n(c2=O)Cc2cc3c(CN(C)C)c(O)ccc3nc2-1 | 7.73 | > 8.02 | > 8.02 | > 8.02 | > 8.02 | 3.68 | 4.09 | 2.62 | 0.44 | 3.26 | 4.02 | 2.08 | 0.35 | 3.3 | 3.14 | 2.37 | 0.13 | 4.07 | 3.55 | 2.72 | viability, T/C [1]: 77.6%; viability, T/C [2]: 30.6%; viability, T/C [7]: 32.7%; viability, T/C [8]: 9.13%; viability, T/C [13]: 6.55%; viability, T/C [14]: 4.21%; viability, T/C [19]: 4.97%; viability, T/C [20]: 3.98%; viability, T/C [24]: 0.42%; viability, T/C [25]: 4.42%; viability, T/C [26]: 3.95%; viability, T/C [27]: 3.59%; viability, T/C [28]: 3.99%; viability, T/C [29]: 3.16%; viability, T/C [30]: 0.24% |
| Cn1ncnc1[C@H]1c2n[nH]c(=O)c3cc(F)cc(c23)N[C@@H]1c1ccc(F)cc1 + CC[C@@]1(O)C(=O)OCc2c1cc1n(c2=O)Cc2cc3c(CN(C)C)c(O)ccc3nc2-1 | > 8.02 | > 8.02 | > 8.02 | > 8.02 | > 8.02 | 9.97 | 6.78 | 5.19 | 4.32 | 5.6 | 5.88 | 5.84 | 3.69 | 5.25 | 5.52 | 4.93 | 3.48 | 3.48 | 3.91 | 3.43 | viability, T/C [1]: 29.2%; viability, T/C [2]: 16.7%; viability, T/C [7]: 7.72%; viability, T/C [8]: 5.97%; viability, T/C [13]: 5.64%; viability, T/C [14]: 5.6%; viability, T/C [19]: 4.26%; viability, T/C [20]: 4.04%; viability, T/C [24]: 2.72%; viability, T/C [25]: 3.45%; viability, T/C [26]: 4.01%; viability, T/C [27]: 3.37%; viability, T/C [28]: 3.5%; viability, T/C [29]: 2.94%; viability, T/C [30]: 2.13% |
| O=C(c1cc(Cc2n[nH]c(=O)c3ccccc23)ccc1F)N1CCN(C(=O)C2CC2)CC1 + CC[C@@]1(O)C(=O)OCc2c1cc1n(c2=O)Cc2cc3c(CN(C)C)c(O)ccc3nc2-1 | 6.30 | > 7.02 | > 7.02 | > 7.02 | > 7.02 | 63.4 | 56.4 | 41.4 | 18.8 | 14.3 | 11.9 | 10.8 | 7.16 | 5.6 | 5.95 | 5.27 | 6.36 | 5.02 | 4.58 | 4.8 | viability, T/C (second compound 0.003 µM, first compound 9.49 µM): 7.55%; viability, T/C (second compound 0.003 µM, first compound 30 µM): 7.59%; viability, T/C (second compound 0.00949 µM, first compound 9.49 µM): 6.35%; viability, T/C (second compound 0.00949 µM, first compound 30 µM): 7%; viability, T/C (second compound 0.03 µM, first compound 9.49 µM): 5.82%; viability, T/C (second compound 0.03 µM, first compound 30 µM): 6.47%; viability, T/C [24]: 4.07%; viability, T/C (second compound 0.0949 µM, first compound 9.49 µM): 4.67%; viability, T/C (second compound 0.0949 µM, first compound 30 µM): 5.85%; viability, T/C [27]: 3.79%; viability, T/C [28]: 4.17%; viability, T/C [29]: 3.66%; viability, T/C [30]: 4.24%; viability, T/C (second compound 0.3 µM, first compound 9.49 µM): 3.48%; viability, T/C (second compound 0.3 µM, first compound 30 µM): 4.55% |

From PubChem BioAssay AID1845204 (Molecular Pharmacology Branch, DTP, NCI, 2023)
